The source of these data is ChEMBL document CHEMBL4321836, “Discovery of BAY-298 and BAY-899: Tetrahydro-1,6-naphthyridine-Based, Potent, and Selective Antagonists of the Luteinizing Hormone Receptor Which Reduce Sex Hormone Levels in Vivo” (J Med Chem, 2019).

SMILES strings stand for the structures. Bounds are passed on as bounds.

Series [1] is described as follows: Clearance in Han Wistar rat hepatocytes at 1 uM measured after 2 to 90 mins by LC-MS/MS analysis. It counts as ADME, cell-based, Hepatocyte.
For the next series, the target named is Cytochrome P450 3A4 (Homo sapiens, UniProt P08684). Nature of the series: Inhibition of CYP3A4 in human liver microsomes using midazolam as substrate treated prior to substrate addition by LC-MS/MS analysis. It counts as ADME.
Sequence of Cytochrome P450 3A4 (P08684 whole entry): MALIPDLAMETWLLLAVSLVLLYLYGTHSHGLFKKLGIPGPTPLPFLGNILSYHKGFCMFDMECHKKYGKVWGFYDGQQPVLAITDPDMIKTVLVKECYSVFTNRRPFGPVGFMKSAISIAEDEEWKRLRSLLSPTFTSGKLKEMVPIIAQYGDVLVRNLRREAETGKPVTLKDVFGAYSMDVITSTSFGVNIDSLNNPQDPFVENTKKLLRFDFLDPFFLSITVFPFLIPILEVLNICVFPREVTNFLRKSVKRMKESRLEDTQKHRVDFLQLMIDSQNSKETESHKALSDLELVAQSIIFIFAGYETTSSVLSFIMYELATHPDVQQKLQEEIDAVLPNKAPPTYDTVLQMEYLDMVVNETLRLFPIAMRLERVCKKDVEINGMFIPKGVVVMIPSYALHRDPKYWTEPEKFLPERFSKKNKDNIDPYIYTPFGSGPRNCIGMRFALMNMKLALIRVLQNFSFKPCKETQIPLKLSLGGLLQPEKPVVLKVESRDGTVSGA
The target of series [2] is T1, Adenosine receptor A2b (Homo sapiens) (UniProt P29275).
T1 sequence (whole entry): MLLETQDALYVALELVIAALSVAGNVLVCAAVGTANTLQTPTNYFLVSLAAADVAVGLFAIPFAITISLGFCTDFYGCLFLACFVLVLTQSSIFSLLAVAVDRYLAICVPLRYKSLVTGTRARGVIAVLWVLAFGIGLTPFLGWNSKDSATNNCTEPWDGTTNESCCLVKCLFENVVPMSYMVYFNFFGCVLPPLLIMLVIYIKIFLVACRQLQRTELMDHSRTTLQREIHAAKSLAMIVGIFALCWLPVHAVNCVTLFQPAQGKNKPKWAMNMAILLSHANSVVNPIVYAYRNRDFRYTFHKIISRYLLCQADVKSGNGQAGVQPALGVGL
Nature of the series: Agonist activity at human A2B receptor expressed in HEK293 cells at 10 uM after 10 mins by HTRF assay relative to control. Format: cell-based.

For series [3], the target named is T2, Prostaglandin E2 receptor EP3 subtype (Homo sapiens) (UniProt P43115).
T2 sequence (whole entry): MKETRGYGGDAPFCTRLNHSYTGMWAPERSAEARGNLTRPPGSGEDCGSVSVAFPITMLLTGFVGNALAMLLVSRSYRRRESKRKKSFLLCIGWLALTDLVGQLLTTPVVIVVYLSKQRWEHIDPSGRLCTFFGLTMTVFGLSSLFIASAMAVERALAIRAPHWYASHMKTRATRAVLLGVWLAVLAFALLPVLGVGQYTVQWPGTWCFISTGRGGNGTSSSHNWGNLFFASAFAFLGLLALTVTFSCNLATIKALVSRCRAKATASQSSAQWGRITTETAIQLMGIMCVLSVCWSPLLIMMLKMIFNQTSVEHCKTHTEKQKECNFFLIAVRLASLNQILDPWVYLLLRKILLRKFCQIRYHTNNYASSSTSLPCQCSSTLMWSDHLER
Nature of the series: Agonist activity at human EP3 receptor expressed in […] cells at 10 uM by spectrophotometric method relative to control. It counts as cell-based.

Series [4] in a line: Dose normalized AUC in Wistar rat at 0.5 mg/kg, iv after 2 to 72 hrs by LC-MS/MS analysis. Format: ADME, organism-based. The following applies: in vivo.
In series [5] the target is T3, Follicle-stimulating hormone receptor (Homo sapiens, UniProt P23945).
T3 sequence (P23945 whole entry): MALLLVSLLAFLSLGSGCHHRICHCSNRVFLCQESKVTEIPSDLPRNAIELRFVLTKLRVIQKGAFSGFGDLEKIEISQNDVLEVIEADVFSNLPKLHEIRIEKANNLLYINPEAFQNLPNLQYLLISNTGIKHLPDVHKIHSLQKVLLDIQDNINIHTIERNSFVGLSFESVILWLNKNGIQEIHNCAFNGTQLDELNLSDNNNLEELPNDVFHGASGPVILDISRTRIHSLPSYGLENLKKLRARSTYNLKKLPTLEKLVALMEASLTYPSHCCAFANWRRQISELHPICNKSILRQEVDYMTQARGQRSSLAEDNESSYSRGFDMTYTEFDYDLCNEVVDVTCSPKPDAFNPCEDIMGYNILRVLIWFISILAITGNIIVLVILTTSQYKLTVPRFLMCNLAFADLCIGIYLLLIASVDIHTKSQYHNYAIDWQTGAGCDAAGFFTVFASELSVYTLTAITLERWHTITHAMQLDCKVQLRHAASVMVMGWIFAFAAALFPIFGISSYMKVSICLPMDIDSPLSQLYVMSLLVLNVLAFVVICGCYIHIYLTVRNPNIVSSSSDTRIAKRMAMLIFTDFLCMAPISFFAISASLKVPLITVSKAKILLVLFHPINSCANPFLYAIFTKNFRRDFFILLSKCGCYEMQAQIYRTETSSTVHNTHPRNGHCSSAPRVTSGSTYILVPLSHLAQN
Nature of the series: Antagonist activity at human follicle stimulating hormone receptor assessed as reduction in agonist-induced cAMP production preincubated for 20 mins followed by agonist solution addition and measured after 120 mins by cell based TR-FRET assay. It counts as functional.

Series [6] deals with Histamine H1 receptor (Homo sapiens) (UniProt P35367). Nature of the series: Antagonist activity at human histamine H1 receptor expressed in HEK293 cells at 10 uM by Fluorimetric method relative to control. Format: cell-based. Set-up: scale not given: the % may be the effect or the level left.
Sequence of Histamine H1 receptor (Homo sapiens) (P35367 whole entry): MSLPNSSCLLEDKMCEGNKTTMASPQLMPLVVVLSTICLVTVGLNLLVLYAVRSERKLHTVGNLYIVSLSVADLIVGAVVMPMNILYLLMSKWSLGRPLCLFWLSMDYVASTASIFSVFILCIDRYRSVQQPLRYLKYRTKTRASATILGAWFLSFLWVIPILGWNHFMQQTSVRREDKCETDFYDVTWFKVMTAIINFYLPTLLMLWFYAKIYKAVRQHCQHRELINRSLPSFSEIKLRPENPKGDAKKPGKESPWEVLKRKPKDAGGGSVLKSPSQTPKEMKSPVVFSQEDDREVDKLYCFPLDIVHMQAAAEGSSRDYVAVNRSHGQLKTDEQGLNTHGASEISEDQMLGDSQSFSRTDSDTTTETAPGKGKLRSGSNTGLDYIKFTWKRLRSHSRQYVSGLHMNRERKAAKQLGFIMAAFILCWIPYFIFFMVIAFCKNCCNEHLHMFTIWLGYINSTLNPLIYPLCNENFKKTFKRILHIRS
Series [7] deals with 5-hydroxytryptamine receptor 6 (Homo sapiens) (UniProt P50406). Nature of the series: Agonist activity at human 5-HT6 receptor expressed in CHO-K1 cells at 10 uM after 30 mins by HTRF assay relative to control. Format: cell-based.
Sequence of 5-hydroxytryptamine receptor 6 (Homo sapiens) (P50406 whole entry): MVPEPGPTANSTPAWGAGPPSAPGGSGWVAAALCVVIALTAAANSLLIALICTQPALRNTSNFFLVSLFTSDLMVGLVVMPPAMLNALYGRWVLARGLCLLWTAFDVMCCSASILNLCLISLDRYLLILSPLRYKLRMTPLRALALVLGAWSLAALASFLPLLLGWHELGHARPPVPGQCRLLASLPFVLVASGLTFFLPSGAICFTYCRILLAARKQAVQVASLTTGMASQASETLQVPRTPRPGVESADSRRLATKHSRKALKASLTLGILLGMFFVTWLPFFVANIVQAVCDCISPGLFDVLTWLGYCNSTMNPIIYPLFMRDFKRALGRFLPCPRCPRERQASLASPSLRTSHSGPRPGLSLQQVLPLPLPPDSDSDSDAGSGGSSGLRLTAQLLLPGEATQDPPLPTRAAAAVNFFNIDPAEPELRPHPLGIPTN
A short description of series [8]: Dose normalized AUC in Wistar rat at 2 mg/kg, po after 8 to 72 hrs by LC-MS/MS analysis. Format: ADME, organism-based. The note with it: in vivo.
The nature of series [9]: Half life in Wistar rat at 2 mg/kg, po after 8 to 72 hrs by LC-MS/MS analysis. It counts as ADME, organism-based. The note with it: in vivo.
The nature of series [10]: Protein binding in human plasma assessed as unbound fraction. Format: ADME, cell-free.
Series [11] has as its target T4, Muscarinic acetylcholine receptor M1 (Homo sapiens) (UniProt P11229).
T4 sequence (whole entry): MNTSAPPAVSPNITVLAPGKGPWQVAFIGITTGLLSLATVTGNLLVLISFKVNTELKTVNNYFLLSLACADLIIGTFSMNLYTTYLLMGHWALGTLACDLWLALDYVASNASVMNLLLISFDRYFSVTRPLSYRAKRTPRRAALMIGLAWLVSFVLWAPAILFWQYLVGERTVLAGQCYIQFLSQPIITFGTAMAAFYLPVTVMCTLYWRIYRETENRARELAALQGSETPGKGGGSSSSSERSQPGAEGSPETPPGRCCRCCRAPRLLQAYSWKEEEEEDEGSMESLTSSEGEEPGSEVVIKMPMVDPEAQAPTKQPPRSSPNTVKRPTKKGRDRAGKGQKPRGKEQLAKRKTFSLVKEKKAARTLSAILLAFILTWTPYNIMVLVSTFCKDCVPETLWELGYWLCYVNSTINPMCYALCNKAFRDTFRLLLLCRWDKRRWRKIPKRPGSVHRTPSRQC
Nature of the series: Agonist activity at human muscarinic M1 receptor expressed in CHO-K1 cells at 10 uM by fluorimetric method relative to control. It counts as cell-based.

The target in series [12] is 5-hydroxytryptamine receptor 6 (Homo sapiens) (UniProt P50406). Nature of the series: Antagonist activity at human 5-HT6 receptor expressed in CHO-K1 cells at 10 uM after 30 mins by HTRF assay relative to control. It counts as cell-based. Set-up: scale not given: the % may be the effect or the level left.
Series [13] concerns the target Motilin receptor (Homo sapiens) (UniProt O43193). Nature of the series: Agonist activity at human Motilin receptor expressed in CHO-K1 cells at 10 uM by fluorimetric method relative to control. It counts as cell-based.
The nature of series [14]: Volume of distribution at steady state in Wistar rat at 0.5 mg/kg, iv after 2 to 72 hrs by LC-MS/MS analysis. Format: ADME, organism-based. The note with it: in vivo, read-out: Vdss.
Series [15] addresses P2Y purinoceptor 2 (Homo sapiens) (UniProt P41231). Nature of the series: Agonist activity at human P2Y2 receptor expressed in human 1321N1 cells at 10 uM by fluorimetric method relative to control. It counts as cell-based.

Sequence of P2Y purinoceptor 2 (Homo sapiens) (P41231 whole entry): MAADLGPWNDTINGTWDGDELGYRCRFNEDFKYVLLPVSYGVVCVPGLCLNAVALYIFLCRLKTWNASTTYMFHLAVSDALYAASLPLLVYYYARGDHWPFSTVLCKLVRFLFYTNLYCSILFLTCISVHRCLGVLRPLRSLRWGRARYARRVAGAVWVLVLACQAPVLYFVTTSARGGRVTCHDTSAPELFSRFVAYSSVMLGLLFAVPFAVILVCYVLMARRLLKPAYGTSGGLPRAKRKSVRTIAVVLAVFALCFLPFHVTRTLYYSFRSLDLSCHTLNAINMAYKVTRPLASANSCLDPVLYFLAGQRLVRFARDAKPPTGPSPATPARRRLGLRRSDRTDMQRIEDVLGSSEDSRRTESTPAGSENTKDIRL
Sequence of Motilin receptor (Homo sapiens) (O43193 whole entry): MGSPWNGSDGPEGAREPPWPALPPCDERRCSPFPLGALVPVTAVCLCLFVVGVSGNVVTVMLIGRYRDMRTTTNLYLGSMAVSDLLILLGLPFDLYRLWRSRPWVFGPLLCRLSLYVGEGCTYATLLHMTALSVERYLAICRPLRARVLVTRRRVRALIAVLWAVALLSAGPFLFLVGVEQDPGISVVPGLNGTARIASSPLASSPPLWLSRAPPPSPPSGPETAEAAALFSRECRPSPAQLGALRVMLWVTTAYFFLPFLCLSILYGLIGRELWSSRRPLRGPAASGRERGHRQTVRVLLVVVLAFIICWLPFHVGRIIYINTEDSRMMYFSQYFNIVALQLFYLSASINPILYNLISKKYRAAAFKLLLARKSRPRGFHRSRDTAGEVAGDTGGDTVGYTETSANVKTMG

For the compound `O=C(Nc1cnc(Oc2ccc(F)cc2)nc1)N1CCc2ncccc2[C@@H]1c1ccc(F)cc1` [BAY-899], in series [1], the CLH amounted to 21.7 mL/min/kg. Besides, the IC50 is above 20 µM at Cytochrome P450 3A4 and above 16 µM in series [5]. The Activity in series [2], in series [3], in series [6], in [7], in series [11] and in series [12] was below 70% in each case. In addition, the Activity in series [13] and in series [15] was below 70% throughout. The AUC/dose in series [4] amounted to 2.5 kg·h/L; in [8] it was 2.7 kg·h/L. Moreover, the half-life in series [9] was 33 h. Further, the fraction unbound in series [10] was 0.017. For the same compound, the Vd in series [14] stood at 16 L/kg.
Take `O=C(Nc1ccc(Oc2ccc(F)cc2)cc1)N1CCc2ncccc2[C@@H]1c1ccc(Cl)cc1`: in series [1], the CLH was 18.3 mL/min/kg. Also, the results for the IC50 (against Cytochrome P450 3A4; in [5]) were above 20 µM and above 16 µM, respectively. The Activity in series [2], in series [3], in series [6], in series [7], in [11] and in series [12] was below 70% throughout. In addition, the Activity in [13] and in series [15] was below 70% throughout. In addition, the AUC/dose in series [4] was determined as 9.4 kg·h/L; in series [8], 7.8 kg·h/L. The half-life in series [9] was 12 h. In series [10], the fraction unbound came out at 0.002. For the same compound, the Vd in series [14] worked out at 1.8 L/kg.
